This is an account of results in ChEMBL document CHEMBL1909046, “DrugMatrix in vitro pharmacology data”.

The structures appear in SMILES notation. pIC50, pKi: −log10 of the molar value.

Test [1] addresses Delta-type opioid receptor (Homo sapiens, UniProt P41143). Format: cell membranes, HEK293, Membrane. The settings on record: hek293.
Test [2] deals with T1, 3-hydroxy-3-methylglutaryl-coenzyme A reductase (Homo sapiens, UniProt P04035).
T1 sequence (P04035 whole entry): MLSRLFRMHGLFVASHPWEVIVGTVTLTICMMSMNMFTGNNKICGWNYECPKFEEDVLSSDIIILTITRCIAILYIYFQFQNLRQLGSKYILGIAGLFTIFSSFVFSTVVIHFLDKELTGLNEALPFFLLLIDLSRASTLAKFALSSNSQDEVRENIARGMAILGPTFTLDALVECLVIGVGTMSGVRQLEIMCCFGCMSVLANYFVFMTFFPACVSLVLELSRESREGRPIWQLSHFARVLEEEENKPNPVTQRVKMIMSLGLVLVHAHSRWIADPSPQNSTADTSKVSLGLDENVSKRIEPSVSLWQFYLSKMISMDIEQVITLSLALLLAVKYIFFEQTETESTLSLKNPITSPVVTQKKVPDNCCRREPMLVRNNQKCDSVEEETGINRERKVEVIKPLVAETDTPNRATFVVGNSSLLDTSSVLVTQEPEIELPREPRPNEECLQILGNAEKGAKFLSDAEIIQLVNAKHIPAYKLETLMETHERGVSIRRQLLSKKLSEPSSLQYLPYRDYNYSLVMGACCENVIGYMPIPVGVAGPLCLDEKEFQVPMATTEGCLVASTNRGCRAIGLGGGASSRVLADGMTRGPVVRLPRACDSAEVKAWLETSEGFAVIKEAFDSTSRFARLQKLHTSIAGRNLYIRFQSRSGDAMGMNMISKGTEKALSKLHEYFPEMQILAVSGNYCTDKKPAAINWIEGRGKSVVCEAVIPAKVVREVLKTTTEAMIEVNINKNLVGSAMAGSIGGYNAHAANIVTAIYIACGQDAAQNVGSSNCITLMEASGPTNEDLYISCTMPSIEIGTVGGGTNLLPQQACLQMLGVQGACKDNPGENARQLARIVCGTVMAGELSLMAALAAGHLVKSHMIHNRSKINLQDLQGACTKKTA
The arrangement: species or system Escherichia coli.

For another test, the target named is Mu-type opioid receptor (Homo sapiens, UniProt P35372). Nature of the test: DRUGMATRIX: Opiate mu (OP3, MOP) radioligand binding (ligand: [3H] Diprenorphine). Format: cell membranes, CHO-K1, Membrane. The settings on record: cho-k1; Not Active = under 50% inhibition at 10 µM.
The target of test [3] is Receptor tyrosine-protein kinase erbB-2 (Homo sapiens, UniProt P04626). Nature of the test: biochemical. The settings on record: insect cells. Format: cell-based, Insect cells.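 Further: inhibition of HER2 kinase enzyme activity, measured with Poly(Glu:Tyr) as the phosphorylation substrate; in other assays of this panel Not Active means under 50% inhibition at 10 µM.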
The target of test [4] is T2, Cholecystokinin receptor type A (Homo sapiens, UniProt P32238). Further: in other assays of this panel Not Active means under 50% inhibition at 10 µM.
T2 sequence (P32238 whole entry): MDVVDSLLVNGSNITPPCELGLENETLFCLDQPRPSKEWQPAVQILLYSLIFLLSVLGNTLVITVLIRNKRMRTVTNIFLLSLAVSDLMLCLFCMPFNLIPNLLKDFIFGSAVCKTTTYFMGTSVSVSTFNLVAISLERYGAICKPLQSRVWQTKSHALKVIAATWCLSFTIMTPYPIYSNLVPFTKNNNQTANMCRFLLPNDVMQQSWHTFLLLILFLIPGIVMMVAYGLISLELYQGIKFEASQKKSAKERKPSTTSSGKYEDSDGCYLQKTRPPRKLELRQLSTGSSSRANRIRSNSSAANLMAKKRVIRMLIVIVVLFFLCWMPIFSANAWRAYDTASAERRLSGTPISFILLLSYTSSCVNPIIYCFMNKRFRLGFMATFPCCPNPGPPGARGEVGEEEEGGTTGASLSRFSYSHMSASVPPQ
Format: cell membranes, Membrane. The settings on record: 1321-n1.

The target in test [5] is T3, Amine oxidase [flavin-containing] A (Homo sapiens, UniProt P21397).
T3 sequence (P21397 whole entry): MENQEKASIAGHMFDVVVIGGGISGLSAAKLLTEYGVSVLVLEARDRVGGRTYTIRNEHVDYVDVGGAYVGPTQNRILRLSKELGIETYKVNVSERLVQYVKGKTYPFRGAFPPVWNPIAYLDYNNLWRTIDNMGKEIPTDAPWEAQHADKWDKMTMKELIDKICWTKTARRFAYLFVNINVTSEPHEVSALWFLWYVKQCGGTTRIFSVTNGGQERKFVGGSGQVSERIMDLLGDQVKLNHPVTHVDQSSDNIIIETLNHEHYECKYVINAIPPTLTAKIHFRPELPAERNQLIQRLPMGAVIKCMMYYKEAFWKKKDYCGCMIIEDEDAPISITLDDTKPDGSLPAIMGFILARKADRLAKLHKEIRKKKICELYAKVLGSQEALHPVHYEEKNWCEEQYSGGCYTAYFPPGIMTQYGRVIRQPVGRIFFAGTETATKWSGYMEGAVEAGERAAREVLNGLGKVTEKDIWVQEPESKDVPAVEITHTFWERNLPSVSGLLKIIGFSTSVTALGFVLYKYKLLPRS
Put plainly: DRUGMATRIX: Monoamine Oxidase MAO-A enzyme inhibition (substrate: Kynuramine). The arrangement: species or system BTI-TN-5B1-4. The settings on record: bti-tn-5b1-4; Not Active = under 50% inhibition at 10 µM.

In test [6] the target is 5-hydroxytryptamine receptor 4 (Cavia porcellus, UniProt O70528). Format: cell membranes, Dunkin-Hartley, Striatum, Membrane. Further: in other assays of this panel Not Active means under 50% inhibition at 10 µM.
Test [7] can be described thus: DRUGMATRIX: beta-Lactamase enzyme inhibition (substrate: Nitrocefin). The settings on record: Not Active = under 50% inhibition at 10 µM. Also on record: species or system Bacillus cereus.
The target in test [8] is 5-hydroxytryptamine receptor 6 (Homo sapiens, UniProt P50406). In kind it is cell membranes, HeLa, Membrane. The settings on record: hela. Further: in other assays of this panel Not Active means under 50% inhibition at 10 µM.
For another test, the target named is T4, Adenosine receptor A1 (Homo sapiens, UniProt P30542).
T4 sequence (P30542 whole entry): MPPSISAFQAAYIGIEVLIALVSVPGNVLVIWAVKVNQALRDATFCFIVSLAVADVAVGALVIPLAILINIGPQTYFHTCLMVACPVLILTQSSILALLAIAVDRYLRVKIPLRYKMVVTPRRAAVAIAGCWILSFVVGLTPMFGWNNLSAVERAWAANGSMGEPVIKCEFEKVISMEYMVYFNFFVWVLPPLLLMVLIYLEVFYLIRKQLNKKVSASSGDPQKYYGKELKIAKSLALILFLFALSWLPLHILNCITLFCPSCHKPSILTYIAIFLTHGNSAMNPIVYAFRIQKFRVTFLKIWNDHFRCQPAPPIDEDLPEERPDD
Format: cell membranes, CHO, Membrane. The settings on record: for IC50: cho.

Test [9] has as its target Matrix metalloproteinase-9 (Homo sapiens, UniProt P14780). In kind it is cell-based.
Test [10] concerns the target Tyrosine-protein kinase Fyn (Homo sapiens, UniProt P06241). Put plainly: biochemical. Format: cell-based, Insect cells. The settings on record: insect cells.

5-hydroxytryptamine receptor 4, sequence (O70528 whole entry): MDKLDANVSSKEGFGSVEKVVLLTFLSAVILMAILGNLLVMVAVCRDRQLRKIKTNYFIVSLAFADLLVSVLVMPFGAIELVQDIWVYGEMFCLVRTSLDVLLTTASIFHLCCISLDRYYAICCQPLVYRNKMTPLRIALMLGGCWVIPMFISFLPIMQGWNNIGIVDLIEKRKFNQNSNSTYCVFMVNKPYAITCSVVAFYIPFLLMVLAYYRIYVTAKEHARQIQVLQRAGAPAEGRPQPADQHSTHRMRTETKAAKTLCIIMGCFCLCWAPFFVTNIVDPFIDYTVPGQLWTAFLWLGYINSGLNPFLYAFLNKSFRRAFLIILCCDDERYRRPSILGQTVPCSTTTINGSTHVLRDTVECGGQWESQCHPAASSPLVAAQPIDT
Tyrosine-protein kinase Fyn, sequence (P06241 whole entry): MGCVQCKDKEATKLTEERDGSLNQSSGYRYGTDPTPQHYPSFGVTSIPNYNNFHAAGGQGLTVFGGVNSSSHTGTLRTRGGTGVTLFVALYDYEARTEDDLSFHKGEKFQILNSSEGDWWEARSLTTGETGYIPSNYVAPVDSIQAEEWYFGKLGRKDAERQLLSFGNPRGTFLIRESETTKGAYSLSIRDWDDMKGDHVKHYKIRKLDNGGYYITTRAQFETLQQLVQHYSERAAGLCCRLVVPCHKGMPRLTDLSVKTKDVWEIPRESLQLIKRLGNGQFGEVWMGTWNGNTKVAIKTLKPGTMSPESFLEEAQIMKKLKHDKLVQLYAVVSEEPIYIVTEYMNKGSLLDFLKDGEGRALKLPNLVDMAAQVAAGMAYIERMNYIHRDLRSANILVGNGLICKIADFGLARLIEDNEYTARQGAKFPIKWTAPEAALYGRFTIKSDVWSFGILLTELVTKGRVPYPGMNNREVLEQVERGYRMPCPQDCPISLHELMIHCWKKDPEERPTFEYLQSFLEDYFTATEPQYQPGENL
Mu-type opioid receptor, sequence (P35372 whole entry): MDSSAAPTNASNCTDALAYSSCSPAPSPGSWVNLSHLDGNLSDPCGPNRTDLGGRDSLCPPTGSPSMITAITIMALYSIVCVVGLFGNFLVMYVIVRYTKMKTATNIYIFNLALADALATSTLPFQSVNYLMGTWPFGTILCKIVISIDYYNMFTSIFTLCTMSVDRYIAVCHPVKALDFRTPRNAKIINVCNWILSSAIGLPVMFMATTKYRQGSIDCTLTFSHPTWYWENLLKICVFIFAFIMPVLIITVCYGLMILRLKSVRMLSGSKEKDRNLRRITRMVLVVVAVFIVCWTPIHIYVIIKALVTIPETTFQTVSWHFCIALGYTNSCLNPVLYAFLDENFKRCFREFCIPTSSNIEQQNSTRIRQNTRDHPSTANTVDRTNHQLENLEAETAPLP
Receptor tyrosine-protein kinase erbB-2, sequence (P04626 whole entry): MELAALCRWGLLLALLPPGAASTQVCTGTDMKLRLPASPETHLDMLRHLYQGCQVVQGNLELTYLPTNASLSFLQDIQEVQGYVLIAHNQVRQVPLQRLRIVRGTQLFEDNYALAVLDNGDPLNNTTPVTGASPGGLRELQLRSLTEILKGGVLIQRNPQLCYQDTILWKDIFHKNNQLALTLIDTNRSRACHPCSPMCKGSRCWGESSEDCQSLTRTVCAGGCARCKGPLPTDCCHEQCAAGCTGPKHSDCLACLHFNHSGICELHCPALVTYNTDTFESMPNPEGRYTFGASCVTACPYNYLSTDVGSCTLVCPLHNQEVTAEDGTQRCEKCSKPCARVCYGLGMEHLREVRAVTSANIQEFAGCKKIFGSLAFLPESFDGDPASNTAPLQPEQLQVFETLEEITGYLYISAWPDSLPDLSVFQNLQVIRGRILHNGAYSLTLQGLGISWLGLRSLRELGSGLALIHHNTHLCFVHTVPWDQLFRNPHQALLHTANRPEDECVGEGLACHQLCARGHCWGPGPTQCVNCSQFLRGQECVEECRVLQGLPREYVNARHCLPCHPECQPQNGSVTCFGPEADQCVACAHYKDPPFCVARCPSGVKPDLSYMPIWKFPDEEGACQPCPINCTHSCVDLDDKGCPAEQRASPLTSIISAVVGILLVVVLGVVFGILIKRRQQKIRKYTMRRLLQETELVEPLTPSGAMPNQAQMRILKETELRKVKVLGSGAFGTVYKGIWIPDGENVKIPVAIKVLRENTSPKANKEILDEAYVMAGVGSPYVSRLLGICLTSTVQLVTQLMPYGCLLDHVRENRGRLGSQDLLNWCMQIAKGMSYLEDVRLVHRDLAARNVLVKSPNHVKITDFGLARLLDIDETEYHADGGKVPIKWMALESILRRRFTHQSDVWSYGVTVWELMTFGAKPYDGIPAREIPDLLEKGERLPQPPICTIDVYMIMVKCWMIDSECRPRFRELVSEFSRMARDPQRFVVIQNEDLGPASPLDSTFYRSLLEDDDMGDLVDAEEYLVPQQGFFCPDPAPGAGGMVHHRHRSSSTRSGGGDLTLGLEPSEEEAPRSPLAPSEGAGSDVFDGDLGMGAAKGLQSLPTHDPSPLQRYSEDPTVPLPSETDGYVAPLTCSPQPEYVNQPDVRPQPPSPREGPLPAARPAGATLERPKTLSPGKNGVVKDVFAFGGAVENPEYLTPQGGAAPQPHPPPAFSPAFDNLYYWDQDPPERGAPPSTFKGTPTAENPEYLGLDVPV
Delta-type opioid receptor, sequence (P41143 whole entry): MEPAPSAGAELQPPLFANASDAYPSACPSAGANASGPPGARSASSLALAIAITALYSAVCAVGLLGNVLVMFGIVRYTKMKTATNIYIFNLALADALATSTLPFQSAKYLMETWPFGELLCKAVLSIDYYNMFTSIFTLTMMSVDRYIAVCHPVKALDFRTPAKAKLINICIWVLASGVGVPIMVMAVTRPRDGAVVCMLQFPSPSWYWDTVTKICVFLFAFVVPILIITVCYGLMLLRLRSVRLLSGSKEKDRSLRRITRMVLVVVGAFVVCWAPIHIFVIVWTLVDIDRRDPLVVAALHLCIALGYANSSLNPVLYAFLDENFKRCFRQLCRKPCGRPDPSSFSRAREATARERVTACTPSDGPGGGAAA
5-hydroxytryptamine receptor 6, sequence (P50406 whole entry): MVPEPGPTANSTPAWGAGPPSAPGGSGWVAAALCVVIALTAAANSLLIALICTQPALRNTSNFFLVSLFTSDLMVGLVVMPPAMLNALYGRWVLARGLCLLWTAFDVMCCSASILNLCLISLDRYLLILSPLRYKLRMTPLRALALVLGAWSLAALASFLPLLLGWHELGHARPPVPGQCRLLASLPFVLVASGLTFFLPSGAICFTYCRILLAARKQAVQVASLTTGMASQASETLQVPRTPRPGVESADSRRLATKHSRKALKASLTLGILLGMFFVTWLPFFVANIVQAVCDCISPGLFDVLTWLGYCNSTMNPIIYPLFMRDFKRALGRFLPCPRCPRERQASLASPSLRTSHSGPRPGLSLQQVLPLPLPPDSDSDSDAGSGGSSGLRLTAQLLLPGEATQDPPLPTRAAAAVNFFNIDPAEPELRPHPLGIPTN
Matrix metalloproteinase-9, sequence (P14780 whole entry): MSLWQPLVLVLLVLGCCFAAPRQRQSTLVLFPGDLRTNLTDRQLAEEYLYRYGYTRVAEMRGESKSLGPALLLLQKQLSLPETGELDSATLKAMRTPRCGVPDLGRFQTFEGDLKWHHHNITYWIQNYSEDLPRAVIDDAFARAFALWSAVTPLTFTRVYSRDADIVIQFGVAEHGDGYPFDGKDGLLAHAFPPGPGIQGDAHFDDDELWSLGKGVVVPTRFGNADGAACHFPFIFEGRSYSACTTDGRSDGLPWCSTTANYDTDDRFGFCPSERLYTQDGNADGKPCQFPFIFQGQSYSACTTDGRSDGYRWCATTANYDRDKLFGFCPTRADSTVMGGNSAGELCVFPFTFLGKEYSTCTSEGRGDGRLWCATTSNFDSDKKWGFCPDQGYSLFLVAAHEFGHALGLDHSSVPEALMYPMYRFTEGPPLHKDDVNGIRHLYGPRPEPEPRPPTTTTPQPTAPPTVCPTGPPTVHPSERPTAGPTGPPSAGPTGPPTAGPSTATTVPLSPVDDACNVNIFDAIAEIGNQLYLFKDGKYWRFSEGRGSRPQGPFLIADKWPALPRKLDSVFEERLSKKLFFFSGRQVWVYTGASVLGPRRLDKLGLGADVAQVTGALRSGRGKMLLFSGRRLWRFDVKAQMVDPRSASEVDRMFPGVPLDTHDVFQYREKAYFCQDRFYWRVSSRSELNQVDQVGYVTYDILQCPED

Regarding `COc1c(C)c2c(c(O)c1C/C=C(\C)CCC(=O)OCCN1CCOCC1)C(=O)OC2` [MYCOPHENOLATE MOFETIL], the IC50 result (in test [1]; in [2]; at Mu-type opioid receptor; in [3]; in [4]; in [5]) was “Not Active” in each case. The IC50 result (in [6]; in test [7]; in [8]; against Adenosine receptor A1; in [9]; in test [10]) was “Not Active” throughout. The Ki entry in test [7] is given as “Not Active”.
By pIC50 is commonly meant −log10 of the IC50, conventionally taken in molar units. Broadly, the pKi is the Ki on a negative log10 scale, so that one unit is a factor of ten. On to `COC(=O)C1=C(C)NC(C)=C(C(=O)OC)C1c1ccccc1[N+](=O)[O-]` [NIFEDIPINE], for which the IC50 result (in test [1]; in [2]; on Mu-type opioid receptor; in test [3]; in [4]; in test [5]) was “Not Active” in each case. In addition, the IC50 entry in [6], in [7], in [8], in [9] and in [10] was “Not Active” throughout. Besides, the Ki result in [7] is “Not Active”. Also, the negative-log IC50 (pIC50) at Adenosine receptor A1 (read-out: IC50) is 5.11. In addition, the negative logarithm of the Ki (pKi) on Adenosine receptor A1 (read-out: Ki) is 5.35.
As for `CC(=O)[C@H]1CC[C@H]2[C@@H]3CCC4=CC(=O)CC[C@]4(C)[C@H]3CC[C@]12C` [PROGESTERONE], the IC50 entry (in test [1]; in [2]; on Mu-type opioid receptor; in [3]; in test [4]; in test [5]) was “Not Active” in each case. Further, the IC50 entry (in [6]; in test [7]; in test [8]; at Adenosine receptor A1; in [9]; in [10]) was “Not Active” each time. In addition, in test [7], the Ki result was “Not Active”.
`NC(=O)c1ncn([C@@H]2O[C@H](CO)[C@@H](O)[C@H]2O)n1` [RIBAVIRIN]: the IC50 entry (in test [1]; in test [2]; at Mu-type opioid receptor; in [3]; in [4]; in [5]) was “Not Active” each time. The IC50 result (in [6]; in test [7]; in [8]; against Adenosine receptor A1; in test [9]; in test [10]) was “Not Active” in each case. Moreover, in [7], the Ki result is given as “Not Active”.
Take `CC[C@H]1OC(=O)[C@H](C)[C@@H](O[C@H]2C[C@@](C)(OC)[C@@H](O)[C@H](C)O2)[C@H](C)[C@@H](O[C@@H]2O[C@H](C)C[C@H](N(C)C)[C@H]2O)[C@](C)(O)C[C@@H](C)/C(=N\OCOCCOC)[C@H](C)[C@@H](O)[C@]1(C)O` [ROXITHROMYCIN]: the IC50 result (in [1]; in test [2]; at Mu-type opioid receptor; in test [3]; in test [4]; in test [5]) was “Not Active” each time. Also, the IC50 entry (in [6]; in test [7]; in test [8]; against Adenosine receptor A1; in [9]; in [10]) was “Not Active” in each case. Also, the Ki entry in test [7] is “Not Active”.
`NC(=O)c1ccccc1O` [SALICYLAMIDE]: the IC50 result (in test [1]; in [2]; at Mu-type opioid receptor; in test [3]; in test [4]; in test [5]) was “Not Active” in each case. Moreover, the IC50 result (in test [6]; in test [7]; in [8]; on Adenosine receptor A1; in test [9]; in test [10]) was “Not Active” throughout. In addition, in test [7], the Ki entry is given as “Not Active”.
As for `Cc1ncc([N+](=O)[O-])n1CC(C)O` (stereo not given) [SECNIDAZOLE], the IC50 entry (in [1]; in [2]; on Mu-type opioid receptor; in test [3]; in test [4]; in [5]) was “Not Active” in each case. Besides, the IC50 result (in test [6]; in [7]; in test [8]; on Adenosine receptor A1; in [9]; in test [10]) was “Not Active” throughout. For the same compound, the Ki result in test [7] is “Not Active”.
Consider `CN[C@@H]1[C@@H](O)[C@@H](O[C@@H]2[C@@H](O)[C@H](O[C@H]3OC(CN)=CC[C@H]3N)[C@@H](N)C[C@H]2N)OC[C@]1(C)O` [SISOMICIN], for which the IC50 result (in test [1]; in test [2]; at Mu-type opioid receptor; in test [3]; in test [4]; in [5]) was “Not Active” in each case. For the same compound, the IC50 entry (in test [6]; in [7]; in test [8]; against Adenosine receptor A1; in test [9]; in test [10]) was “Not Active” each time. The Ki entry in test [7] was “Not Active”.
